# According to PMC5487681, “Identification of Antifungal H^+-ATPase Inhibitors with Effect on Plasma Membrane Potential” (Antimicrobial Agents and Chemotherapy, 2017):
# Like-named read-outs stand apart in the source and are kept apart here.
# Tests used:
# [1] = test system: Saccharomyces cerevisiae ATCC 9763; settings: pH 3; cited from earlier work
# [2] = test system: S. cerevisiae cells; set-up: method as in PMID 19413991; settings: cited from earlier work
# [3] = target: T1, Na^+,K^+-ATPase (Sus scrofa, UniProt P05024); assay: ATP hydrolysis assay, Na+,K+-ATPase; format: biochemical, porcine; settings: Table 1, read-out: IC50 Na^+,K^+-ATPase
# T1 construct: from tissue; host or cells: porcine kidney (gift of Natalya Fedosova, Aarhus University)
# Method: (§1) Rabbit sarcoplasmic reticulum membranes containing sarcoplasmic endoplasmic reticulum Ca^2+-ATPase (SERCA) were kindly provided by Claus E. Olesen and Jesper V. Møller, Aarhus University, and prepared as described in reference. Porcine kidney Na^+,K^+-ATPase was kindly provided by Natalya Fedosova, Aarhus University, and prepared as described in reference.
# (§2) The protein activity levels were determined by measuring the amount of free phosphate produced from the ATP hydrolysis reaction. The assay was performed as described in reference. Each well contained ATPase enzyme, 2 μl of inhibitor (usually in the range of 333 to 0.01 μM) dissolved in dimethyl sulfoxide (DMSO) (Duchefa Biochemie, Haarlem, The Netherlands), and an assay buffer dependent on the enzyme for a final volume of 60 μl. Possible compound precipitation in the assay buffer was monitored using a Nephelostar plate reader measuring turbidity, and the information was taken into account in the IC50 determination. Pma1 assay buffer consisted of 20 mM 3-(N-morpholino)propanesulfonic acid (MOPS)–NaOH, pH 6.5 or 7.0, 8 mM MgSO4, 50 mM KNO3 (a vacuolar ATPase inhibitor), 25 mM sodium azide (a mitochondrial ATPase inhibitor), and 250 μM sodium molybdate (an acid phosphatase inhibitor). SERCA buffer consisted of 9 mM MOPS-NaOH, pH 7, 2.7 mM MgCl2, 90 μM CaCl2, and 72 mM KCl. Na^+,K^+-ATPase buffer consisted of 30 mM MOPS-NaOH, pH 7, 40 mM NaCl, 4 mM MgCl2, and 20 mM KCl. The concentration of protein was adjusted to obtain a signal of the optical density at 860 nm (OD860) of between 0.5 and 1.0 in the untreated samples (for all Pma1 batches, ∼1 to 2 μg/well; for SERCA and Na^+,K^+-ATPase, ∼0.1 to 0.2 μg/well).
# [4] = test system: Aspergillus fumigatus ATCC 13073; assay: microbe, parasite or virus in culture; settings: Aspergillus fumigatus, ATCC13073, 72 h, pH 7, read-out: MIC A. fumigatus
# Method: (§3) The following fungal isolates were used: Saccharomyces cerevisiae ATCC 9763, Candida albicans SC5314, Candida parapsilosis ATCC 22019, Candida tropicalis Ct016, Candida glabrata ATCC 90030, Aspergillus fumigatus ATCC 13073, and Aspergillus flavus ATCC MYA-1005. Frozen stocks of yeast isolates in glycerol (final concentration, 20%) were prepared by growing the cells to log phase in YPD medium at 30°C and 150 rpm. Frozen stocks of mold spores were prepared by harvesting spores from 7-day-old potato glucose agar plates in phosphate-buffered saline, 0.1% Tween 80 and aliquoting these spores in the presence of glycerol (final concentration, 20%). The cells were stored at −80°C. The cells or spores were thawed and diluted to a final concentration of 0.5 × 10^5 to 2.5 × 10^5 CFU/ml in sterile Milli-Q H2O. […] The plate was incubated for 20 to 24 h at 34°C (72 h for molds), and the OD490 was measured on a Victor X5 (PerkinElmer) plate reader. Mold growth assay plates were also visually inspected. The MIC was defined as the lowest concentration inhibiting the visual growth of the microorganism.
# [5] = test system: Candida tropicalis Ct016; assay: microbe, parasite or virus in culture; settings: Candida tropicalis, CT016, pH 7, read-out: MIC C. tropicalis
# Method: as §3
# [6] = test system: Candida albicans SC5314; assay: microbe, parasite or virus in culture; settings: Candida albicans, SC5314, pH 7, read-out: MIC C. albicans
# Method: as §3
# [7] = test system: Candida parapsilosis ATCC 22019; assay: microbe, parasite or virus in culture; settings: Lodderomyces parapsilosis, ATCC22019, pH 7, read-out: MIC C. parapsilosis
# Method: as §3
# [8] = test system: Candida glabrata ATCC 90030; assay: microbe, parasite or virus in culture; settings: Nakaseomyces glabratus, ATCC90030, pH 7, read-out: MIC C. glabrata
# Method: as §3
# [9] = target: T2, Ca^2+-ATPase (SERCA1a) (Oryctolagus cuniculus, UniProt P04191); assay: ATP hydrolysis assay, SERCA; format: biochemical, rabbit; settings: Table 1; ATP hydrolysis at pH 7.4 (compounds marked b)
# [10] = target: S. cerevisiae Pma1 (Saccharomyces cerevisiae, UniProt P05030); assay: ATP hydrolysis assay, S. cerevisiae plasma membranes containing Pma1; format: biochemical; set-up: containing the full-length cDNA of the S. cerevisiae plasma membrane H^+-ATPase isoform PMA1; made in house; host or cells: S. cerevisiae RS72 (PMA1 cDNA under PMA1 promoter); also wild-type S. cerevisiae ATCC 9763
# Method: Plasma membranes containing Pma1 were isolated from S. cerevisiae RS72 cells containing the full-length cDNA of the S. cerevisiae plasma membrane H^+-ATPase isoform PMA1 under the control of the PMA1 promoter, as described in reference.
# A 100-ml overnight culture in YPD medium [10 g/liter yeast extract (BD, Sparks, MD), 20 g/liter Bacto peptone (BD), 20 g/liter D-(+)-glucose] was transferred to 1 liter YPD medium and grown at room temperature and 150 rpm for 18 h for wild-type S. cerevisiae (ATCC 9763) and 7 h for C. albicans. The cells were harvested and washed in Milli-Q H2O by centrifugation at 3,360 × g. The cells were glucose activated by the addition of 10% D-(+)-glucose for 10 min while shaking. The cells were then centrifuged at 3,360 × g for 3 min and frozen. Cells (60 to 80 g, wet weight) were then disrupted by bead beating (BioSpec, Bartlesville, OK) and processed as described in reference to prepare the plasma membranes. […] All batches were validated by ATPase hydrolysis activity, pH optimum, and orthovanadate sensitivity.
# as §2, with “μg/well). […]” for “μg/well).”
# [11] = test system: S. cerevisiae cells; assay: Intracellular ATP (iATP), S. cerevisiae; format: cell-based, Saccharomyces cerevisiae; settings: S. cerevisiae and C. albicans (Fig. 5A, B); compared to compounds 14, 19 and BM2
# Method: S. cerevisiae and C. albicans cells were grown and washed as described above for the membrane potential and integrity assay and resuspended in SG medium (0.7% yeast nitrogen base without amino acids [BD], 50 mM succinic acid adjusted to pH 7 with Trizma base) to OD600 of 0.2 and 0.1, respectively. One hundred microliters of an S. cerevisiae or C. albicans cell suspension and 1 μl compound in DMSO were incubated for 30 min. Twenty-five microliters of the suspension was then transferred to a black 96-well plate containing 25 μl BacTiter-Glo reagent (Promega, Madison, WI) and incubated for 15 min in the dark. The luminescence was read on SpectraMax X5 (Molecular Devices, Sunnyvale, CA) plate reader with a 10 s of shaking and a 0.5 s integration time. Standard curves at 10, 100, and 1,000 nM ATP were performed with every experiment.
# [12] = test system: C. albicans; assay: Medium acidification assay, C. albicans; format: cell-based, Candida albicans; settings: Candida albicans, 0.2 h; 50% inhibition of medium acidification, 12 min, n = 2 to 3; read-out: IC50 for acidification, C. albicans
# Method: (§4) Frozen stocks of C. albicans and S. cerevisiae were transferred to YPD agar plates and incubated overnight at 34°C. On the next day, the cells were suspended and washed twice in 50 mM KCl, pH 6.7, after pelleting of the cells by centrifugation at 3,000 × g for 5 min. The cells were then starved overnight at 4°C in the KCl solution. […] The pH drop was then monitored by determination of the fluorescent signal with excitation at 485 nm and emission at 538 nm on a Fluoroskan Ascent plate reader (Thermo Fisher Scientific) for 12 min. The rate of medium acidification was calculated on the basis of the slope of the drop in fluorescence.
# [13] = test system: S. cerevisiae; assay: Medium acidification assay, S. cerevisiae; format: cell-based, Saccharomyces cerevisiae; settings: Saccharomyces cerevisiae, 0.2 h; 50% inhibition of medium acidification, 12 min, n = 2 to 3
# Method: as §4
# [14] = target: T2, Ca^2+-ATPase (SERCA1a); assay: ATP hydrolysis assay, SERCA; format: biochemical, rabbit
# Method: as §1, §2
# [15] = Compound precipitation in the fungal growth medium; format: physicochemical; settings: fungal growth medium (RPMI), footnotes of Table 1
# Method: as §3, with “microorganism. Standard errors were typically below 5%.” for “microorganism.”
# [16] = test system: Candida spp.; assay: Fungal growth inhibition, Candida spp. (text summary of Table 1); format: cell-based; settings: 38 μM highest concentration tested for compounds 4 and 8, read-out: MIC for several of the Candida spp. tested
# Method: as §3, with “microorganism. Standard errors were typically below 5%.” for “microorganism.”
# [17] = Table 1, ATP hydrolysis at pH 7, 2 to 3 experiments, read-out: IC50 Pma1
# T2 sequence (P04191 1-994 isoform P04191-2): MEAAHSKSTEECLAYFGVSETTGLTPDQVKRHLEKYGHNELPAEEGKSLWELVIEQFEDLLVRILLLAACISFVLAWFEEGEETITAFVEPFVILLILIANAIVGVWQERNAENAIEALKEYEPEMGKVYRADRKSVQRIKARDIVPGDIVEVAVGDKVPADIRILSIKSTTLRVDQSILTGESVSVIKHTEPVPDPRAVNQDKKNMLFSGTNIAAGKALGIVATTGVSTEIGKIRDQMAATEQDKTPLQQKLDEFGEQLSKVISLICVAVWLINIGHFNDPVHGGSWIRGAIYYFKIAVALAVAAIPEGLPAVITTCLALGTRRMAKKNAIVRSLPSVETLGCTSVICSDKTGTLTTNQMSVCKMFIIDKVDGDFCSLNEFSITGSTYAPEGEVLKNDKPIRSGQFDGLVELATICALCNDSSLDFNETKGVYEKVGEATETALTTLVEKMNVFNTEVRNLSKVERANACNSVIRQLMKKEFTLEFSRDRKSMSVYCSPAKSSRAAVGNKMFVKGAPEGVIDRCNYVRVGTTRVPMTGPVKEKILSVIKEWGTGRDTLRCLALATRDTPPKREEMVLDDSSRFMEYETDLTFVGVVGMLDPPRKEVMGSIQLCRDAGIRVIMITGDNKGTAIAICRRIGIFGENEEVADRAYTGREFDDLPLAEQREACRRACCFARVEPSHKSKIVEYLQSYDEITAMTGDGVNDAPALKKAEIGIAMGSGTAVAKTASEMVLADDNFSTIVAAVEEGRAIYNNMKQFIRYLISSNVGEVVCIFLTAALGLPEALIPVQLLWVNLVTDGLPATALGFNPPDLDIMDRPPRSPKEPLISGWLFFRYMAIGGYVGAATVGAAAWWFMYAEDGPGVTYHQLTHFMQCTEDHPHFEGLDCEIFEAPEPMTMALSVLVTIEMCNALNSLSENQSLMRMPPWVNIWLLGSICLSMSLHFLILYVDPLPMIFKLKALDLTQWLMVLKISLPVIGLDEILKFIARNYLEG
# Chain of S. cerevisiae Pma1 (P05030 whole entry, canonical isoform): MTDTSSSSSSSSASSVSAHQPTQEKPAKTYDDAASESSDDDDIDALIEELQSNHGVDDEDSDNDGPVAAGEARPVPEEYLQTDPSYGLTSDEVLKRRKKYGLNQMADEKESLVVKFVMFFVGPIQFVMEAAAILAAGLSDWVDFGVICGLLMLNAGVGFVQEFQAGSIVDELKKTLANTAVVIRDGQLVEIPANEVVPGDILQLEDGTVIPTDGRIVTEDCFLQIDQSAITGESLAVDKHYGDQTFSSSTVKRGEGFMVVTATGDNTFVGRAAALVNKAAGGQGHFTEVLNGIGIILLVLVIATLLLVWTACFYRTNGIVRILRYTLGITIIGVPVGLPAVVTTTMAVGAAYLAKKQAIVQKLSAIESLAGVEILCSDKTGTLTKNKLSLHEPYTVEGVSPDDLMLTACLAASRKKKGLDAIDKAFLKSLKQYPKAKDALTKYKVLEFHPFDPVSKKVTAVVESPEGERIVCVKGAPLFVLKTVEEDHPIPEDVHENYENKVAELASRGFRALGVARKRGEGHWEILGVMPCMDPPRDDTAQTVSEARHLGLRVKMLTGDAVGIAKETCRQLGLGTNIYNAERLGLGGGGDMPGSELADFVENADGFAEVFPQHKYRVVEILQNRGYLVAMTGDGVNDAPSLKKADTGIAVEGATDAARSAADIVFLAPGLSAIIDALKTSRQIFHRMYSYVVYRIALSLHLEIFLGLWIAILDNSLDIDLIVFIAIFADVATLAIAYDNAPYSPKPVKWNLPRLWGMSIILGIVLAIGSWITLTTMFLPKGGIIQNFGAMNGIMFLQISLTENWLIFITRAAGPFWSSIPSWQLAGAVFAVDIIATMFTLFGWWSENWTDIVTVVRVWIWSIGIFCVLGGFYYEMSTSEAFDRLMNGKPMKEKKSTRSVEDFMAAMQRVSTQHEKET
smiles,measurement,setting,value
COc1ccc2[nH]c([S+]([O-])Cc3ncc(C)c(OC)c3C)nc2c1 (centres unmarked) [omeprazole],Concentration required for full growth inhibition of Saccharomyces cerevisiae,[1],430 µM
same,"Increase in iATP levels, S. cerevisiae",[2],36%
O=C1C=CC(=O)N1c1cccc2ccccc12 [Compound 10],IC50,[3]; ATP hydrolysis at pH 7.4 (compounds marked b),> 105 µM
same,MIC,[4],99 µM
same,MIC,[5],15 µM
same,MIC,[6],88 µM
same,MIC,[7],116 µM
same,MIC,[8],12 µM
same,IC50,[9],3.4 ± 1.8 µM
same,IC50,"[10]; IC50 Pma1, Table 1, ATP hydrolysis at pH 6.5 (compounds marked b), 2 to 3 experiments",9.4 ± 1.7 µM
same,IC50,"[10]; IC50 for Pma1, ATP hydrolysis, S. cerevisiae Pma1",< 25 µM
"CC[C@H]1/C=C/C=C/C[C@@H](C)[C@H](O)[C@@](C)(O)C(=O)[C@@H](C)[C@H](O)[C@@H](C)C(=O)[C@@H](C)[C@H](O)[C@@H](C)/C=C/C(=O)O[C@@H]2[C@H](C)[C@H](CC1)O[C@]1(CC[C@H](C)[C@H](C[C@@H](C)O)O1)[C@H]2C [oligomycin, reference compound]","Effects on iATP levels, in words",[11],minimal effects
"N#CC(C#N)=NNc1cccc(Cl)c1 [CCCP, carbonyl cyanide m-chlorophenylhydrazone, reference compound]","Effects on iATP levels, in words",[11],minimal effects
"C[C@@H]1[C@H](O)[C@@H](C)/C=C/C=C/C=C/C=C/C=C/C=C/C=C/[C@H](O[C@@H]2O[C@H](C)[C@@H](O)[C@H](N)[C@@H]2O)C[C@@H]2O[C@](O)(C[C@@H](O)C[C@@H](O)[C@H](O)CC[C@@H](O)C[C@@H](O)CC(=O)O[C@H]1C)C[C@H](O)[C@H]2C(=O)O [AMB, amphotericin B, reference compound]",IC50,[12],> 75 µM
same,IC50,[13],> 75 µM
CN1CCc2c(sc3c2C(=O)NC(c2ccc(-c4cccc(Cl)c4)o2)N3)C1 (centres unmarked) [Compound 13],IC50,[3]; ATP hydrolysis at pH 7,30.6 ± 11.1 µM
same,MIC,[5],> 150 µM
same,MIC,[6],23 µM
same,MIC,[7],47 µM
same,MIC,[8],31 µM
same,IC50,[14],22 ± 3 µM
same,IC50,"[10]; ATP hydrolysis, S. cerevisiae Pma1, read-out: IC50 for Pma1",< 25 µM
same,IC50,[10]; [17],22.6 ± 12.4 µM
O=C1[C@@H]2C(c3ccc(Br)cc3)=NN(c3ccccc3)[C@@H]2C(=O)N1c1ccccc1F [Compound 2],IC50,[3]; ATP hydrolysis at pH 7,> 105 µM
same,MIC,[6],> 150 µM
same,IC50,[14],> 105 µM
same,Compound precipitation observed in the growth medium at concentrations down to,[15],d Compound precipitation was observed in the growth medium at concentrations down to 48 μM.
same,MIC,[16],> 150 µM
same,IC50,[10]; [17],2.1 ± 1.3 µM
